# Results: publication PMC11649115, “In vitro safety evaluation of dopamine D3R antagonist, R-VK4-116, as a potential medication for the treatment of opioid use disorder” (PLOS ONE, 2024)
# Tests used:
# [1] = target: T1, OATP1B3 (Homo sapiens, UniProt Q9NPD5); experiment: Transporter mediated assay (substrate/inhibitor), MDCK-II cells; type: in vitro ADME
# T1 construct: expressed in transfected cells; host or cells: MDCK-II cells
# T1 sequence (Q9NPD5 1-702): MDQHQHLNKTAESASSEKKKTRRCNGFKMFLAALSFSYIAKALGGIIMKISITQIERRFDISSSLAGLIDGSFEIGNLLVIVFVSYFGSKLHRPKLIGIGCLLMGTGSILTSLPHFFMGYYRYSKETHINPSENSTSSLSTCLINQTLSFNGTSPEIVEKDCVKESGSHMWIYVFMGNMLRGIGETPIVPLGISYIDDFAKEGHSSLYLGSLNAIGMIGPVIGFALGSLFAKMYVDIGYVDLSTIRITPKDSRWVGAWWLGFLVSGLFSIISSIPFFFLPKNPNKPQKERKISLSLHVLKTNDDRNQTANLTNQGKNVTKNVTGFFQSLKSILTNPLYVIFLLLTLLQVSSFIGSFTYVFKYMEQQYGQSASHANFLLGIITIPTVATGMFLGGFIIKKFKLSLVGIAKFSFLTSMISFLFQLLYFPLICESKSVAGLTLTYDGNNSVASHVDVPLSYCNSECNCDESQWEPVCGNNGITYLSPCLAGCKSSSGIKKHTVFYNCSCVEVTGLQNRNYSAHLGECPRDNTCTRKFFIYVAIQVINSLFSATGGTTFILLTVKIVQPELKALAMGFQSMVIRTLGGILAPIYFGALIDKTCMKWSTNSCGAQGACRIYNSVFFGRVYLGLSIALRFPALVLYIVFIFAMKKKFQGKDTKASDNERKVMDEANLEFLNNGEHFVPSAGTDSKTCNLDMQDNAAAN
# Method: (§1) The MDCK-II cells were treated to express the transporter of interest. The transport of each probe substrate was determined by radiometric detection (Fig 1 in S1 File). […] For the uptake assay, the net transporter-mediated uptake-rate (V) of the substrate by each SLC transporter was calculated as follows: Transporter–mediatedupdaterate(pmol/min/cm^2)=(Cellularaccumulationincellsexpressingthetransporter)−(Meancellularaccumulationincontrolcells)/Surfacearea×incubationtime
# (§2) Fold of activity and percent inhibition were determined as follows: Foldofactivity=(Meanuptakerate)transporterexpressingcells/(Meanuptakerate)controlcells Percentinhibition=100−100×(Transport‐mediatedupdaterate)withinhibitor/(Transport‐mediatedupdaterate)vehiclecontrol
# [2] = tested on: rat hepatocytes; experiment: Metabolic stability in hepatocyte; details: rat hepatocytes
# Method: (§3) CYP3A4 substrate Midazolam (10 μM) was prepared and incubated in the same manner. […] In addition, in vitro half-life (t1/2, min) and intrinsic clearance (CLint, μl/min/10^6 cells) were calculated [10, 11].
# [3] = Metabolic stability in hepatocyte; details: Sprague Dawley, rat, hepatocytes in suspension
# Method: as §3
# [4] = target: T2, OATP1B1 (Homo sapiens, UniProt Q9Y6L6); experiment: Transporter mediated assay (substrate/inhibitor), MDCK-II cells; type: in vitro ADME
# T2 construct: expressed in transfected cells; host or cells: MDCK-II cells
# T2 sequence (Q9Y6L6 1-691): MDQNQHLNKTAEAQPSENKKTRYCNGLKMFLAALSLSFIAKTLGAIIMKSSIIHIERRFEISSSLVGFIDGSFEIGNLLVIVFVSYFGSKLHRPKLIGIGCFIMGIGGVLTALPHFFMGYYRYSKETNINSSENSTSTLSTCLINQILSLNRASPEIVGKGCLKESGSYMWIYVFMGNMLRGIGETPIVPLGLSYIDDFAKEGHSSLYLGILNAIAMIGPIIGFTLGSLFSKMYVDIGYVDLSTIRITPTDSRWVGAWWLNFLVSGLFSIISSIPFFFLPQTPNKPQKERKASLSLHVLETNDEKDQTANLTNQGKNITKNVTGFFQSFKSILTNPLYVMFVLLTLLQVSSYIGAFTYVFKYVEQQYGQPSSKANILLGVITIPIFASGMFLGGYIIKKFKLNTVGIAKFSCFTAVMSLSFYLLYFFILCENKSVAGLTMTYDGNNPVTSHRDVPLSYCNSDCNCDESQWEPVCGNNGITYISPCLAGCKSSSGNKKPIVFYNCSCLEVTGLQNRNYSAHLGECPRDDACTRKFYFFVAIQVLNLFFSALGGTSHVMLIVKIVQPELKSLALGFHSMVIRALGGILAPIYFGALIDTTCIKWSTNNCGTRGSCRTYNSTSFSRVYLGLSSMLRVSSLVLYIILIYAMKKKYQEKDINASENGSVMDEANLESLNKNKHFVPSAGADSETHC
# Method: as §1, §2
structure (smiles),measurement,setting,value
"CCc1cc(Cl)c(OC)c(N2CCN(CC(O)CCNC(=O)c3cc4ccccc4[nH]3)CC2)c1 (centres unmarked) [R-VK4-116, N-(4-(4-(3-chloro-5-ethyl-2-methoxyphenyl)piperazin-1-yl)-3-hydroxybutyl)-1H-indole-2-carboxamide]",fold difference in mean uptake rate (substrate test),"[1]; OATP1B3, 1 μM, transporter cells vs control cells",< 2 fold
same,Inhibition (%),"[1]; OATP1B3, 0.1% BSA, 10 μM",no statistically significant inhibition
same,inhibition at 10 µM,"[1]; human, polarized monolayer of MDCK-II cells expressing OATP1B3, OATP1B3, 0.1% BSA, 10 μM",5.29 ± 10.7%
same,% remaining Vs T = 0 min,"[2]; 0.5 μM, 0 min",100.0%
same,% remaining Vs T = 0 min,"[2]; 0.5 μM, 30 min",85.0%
same,% remaining Vs T = 0 min,"[2]; 0.5 μM, 60 min",55.6%
same,% remaining Vs T = 0 min,"[2]; 0.5 μM, 90 min",42.4%
same,% remaining Vs T = 0 min,"[2]; 0.5 μM, 120 min",42.5%
same,% remaining Vs T = 0 min,"[2]; 10 μM, 0 min",100.0%
same,% remaining Vs T = 0 min,"[2]; 10 μM, 30 min",95.8%
same,% remaining Vs T = 0 min,"[2]; 10 μM, 60 min",92.5%
same,% remaining Vs T = 0 min,"[2]; 10 μM, 90 min",66.7%
same,% remaining Vs T = 0 min,"[2]; 10 μM, 120 min",64.6%
same,half-life at 0.5 μM,[3],1.44 h
same,half-life at 10 μM,[3],2.82 h
same,hepatocyte CLint at 0.5 μM,[3],16 µL/min/1e6 cells
same,hepatocyte CLint at 10 μM,[3],8.2 µL/min/1e6 cells
same,fold difference in mean uptake rate (substrate test),"[4]; OATP1B1, 1 μM, transporter cells vs control cells",< 2 fold
same,Inhibition (%),"[4]; OATP1B1, 0.1% BSA, 10 μM",no statistically significant inhibition
same,inhibition at 10 µM,"[4]; human, polarized monolayer of MDCK-II cells expressing OATP1B1, OATP1B1, 0.1% BSA, 10 μM",5.5 ± 17.3%
